In paper PMC11207335, “In Vitro Metabolism and Transport Characteristics of Zastaprazan” (Pharmaceutics, 2024):
Each block holds one compound with its values, some of them ahead of it.

Key:
[1] = target: T1, human cDNA-expressed CYP2C8 (Homo sapiens, UniProt P10632); assay: Enzyme kinetics of JP-1366 metabolism in cDNA-expressed CYP2C8; assay type: in vitro ADME
T1 construct: purchased Corning Life Sciences
T1 sequence (P10632 1-490): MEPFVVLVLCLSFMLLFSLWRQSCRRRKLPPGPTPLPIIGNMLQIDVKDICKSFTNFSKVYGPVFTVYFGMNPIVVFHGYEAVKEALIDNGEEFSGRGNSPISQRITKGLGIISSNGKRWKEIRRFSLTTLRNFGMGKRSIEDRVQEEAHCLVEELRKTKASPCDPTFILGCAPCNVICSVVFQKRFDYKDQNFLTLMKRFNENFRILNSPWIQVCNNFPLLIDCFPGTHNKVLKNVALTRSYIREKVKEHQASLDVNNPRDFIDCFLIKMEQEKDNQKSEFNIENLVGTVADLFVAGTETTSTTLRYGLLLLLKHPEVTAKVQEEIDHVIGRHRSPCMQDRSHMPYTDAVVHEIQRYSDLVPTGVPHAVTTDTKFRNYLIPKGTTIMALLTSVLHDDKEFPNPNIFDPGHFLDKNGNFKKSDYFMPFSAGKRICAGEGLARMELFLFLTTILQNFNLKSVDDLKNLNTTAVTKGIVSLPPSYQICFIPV
Procedure: (§1) The reaction was initiated by adding 5 μL of NADPH-generating system in triplicate, and the mixture was further incubated for 30 min at 37 °C in a shaking water bath.
(§2) The concentrations of the metabolites were quantitated, and their formation rates (pmol/mg protein/min) were calculated by dividing the amounts of metabolites formed from the incubation with human liver microsomes and human cDNA-expressed CYP or UGT enzymes by the incubation time.

H^+/K^+-ATPase = H^+/K^+-ATPase (Homo sapiens, UniProt P20648); details: read-out: IC50 for the H^+/K^+-ATPase inhibition; cited from earlier work
H^+/K^+-ATPase, sequence (P20648 whole entry): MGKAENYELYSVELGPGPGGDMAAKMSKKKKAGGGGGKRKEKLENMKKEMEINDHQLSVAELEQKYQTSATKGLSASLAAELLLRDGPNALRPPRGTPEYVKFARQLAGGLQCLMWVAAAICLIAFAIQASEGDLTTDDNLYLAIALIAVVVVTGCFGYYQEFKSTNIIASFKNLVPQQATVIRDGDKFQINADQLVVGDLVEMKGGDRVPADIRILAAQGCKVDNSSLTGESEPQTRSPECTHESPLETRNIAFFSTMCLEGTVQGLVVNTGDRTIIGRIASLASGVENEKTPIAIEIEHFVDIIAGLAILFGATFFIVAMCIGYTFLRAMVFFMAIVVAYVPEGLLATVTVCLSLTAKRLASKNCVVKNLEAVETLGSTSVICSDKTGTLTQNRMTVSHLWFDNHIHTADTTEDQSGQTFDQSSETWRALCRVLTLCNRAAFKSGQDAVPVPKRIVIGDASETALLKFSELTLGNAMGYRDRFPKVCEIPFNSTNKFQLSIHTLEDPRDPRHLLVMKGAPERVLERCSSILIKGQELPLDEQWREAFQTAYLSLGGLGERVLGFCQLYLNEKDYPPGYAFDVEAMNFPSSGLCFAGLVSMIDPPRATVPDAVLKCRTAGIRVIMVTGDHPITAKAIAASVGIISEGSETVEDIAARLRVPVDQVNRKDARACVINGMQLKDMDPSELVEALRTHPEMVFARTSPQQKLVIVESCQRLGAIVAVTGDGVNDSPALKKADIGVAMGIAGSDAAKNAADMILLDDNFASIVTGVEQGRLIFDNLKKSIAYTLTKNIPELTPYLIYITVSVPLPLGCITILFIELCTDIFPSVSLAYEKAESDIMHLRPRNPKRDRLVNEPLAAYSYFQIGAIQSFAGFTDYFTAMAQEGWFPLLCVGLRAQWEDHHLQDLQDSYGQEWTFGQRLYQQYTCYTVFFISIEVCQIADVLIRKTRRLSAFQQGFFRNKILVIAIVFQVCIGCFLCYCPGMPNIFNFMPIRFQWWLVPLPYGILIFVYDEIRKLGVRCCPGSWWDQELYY
H^+/K^+-ATPase, sequence (P51164 whole entry partner): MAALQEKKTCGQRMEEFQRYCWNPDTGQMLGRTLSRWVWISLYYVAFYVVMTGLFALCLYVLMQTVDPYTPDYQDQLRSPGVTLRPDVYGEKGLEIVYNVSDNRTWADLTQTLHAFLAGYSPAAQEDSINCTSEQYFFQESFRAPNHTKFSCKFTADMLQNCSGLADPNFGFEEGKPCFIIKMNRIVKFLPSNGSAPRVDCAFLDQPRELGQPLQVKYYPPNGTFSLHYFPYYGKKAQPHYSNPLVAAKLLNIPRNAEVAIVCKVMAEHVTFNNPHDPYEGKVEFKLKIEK

[2] = target: T2, human cDNA-expressed CYP3A4 (Homo sapiens, UniProt P08684); assay: Enzyme kinetics of JP-1366 metabolism in cDNA-expressed CYP3A4; assay type: in vitro ADME
T2 construct: purchased Corning Life Sciences
T2 sequence (P08684 whole entry): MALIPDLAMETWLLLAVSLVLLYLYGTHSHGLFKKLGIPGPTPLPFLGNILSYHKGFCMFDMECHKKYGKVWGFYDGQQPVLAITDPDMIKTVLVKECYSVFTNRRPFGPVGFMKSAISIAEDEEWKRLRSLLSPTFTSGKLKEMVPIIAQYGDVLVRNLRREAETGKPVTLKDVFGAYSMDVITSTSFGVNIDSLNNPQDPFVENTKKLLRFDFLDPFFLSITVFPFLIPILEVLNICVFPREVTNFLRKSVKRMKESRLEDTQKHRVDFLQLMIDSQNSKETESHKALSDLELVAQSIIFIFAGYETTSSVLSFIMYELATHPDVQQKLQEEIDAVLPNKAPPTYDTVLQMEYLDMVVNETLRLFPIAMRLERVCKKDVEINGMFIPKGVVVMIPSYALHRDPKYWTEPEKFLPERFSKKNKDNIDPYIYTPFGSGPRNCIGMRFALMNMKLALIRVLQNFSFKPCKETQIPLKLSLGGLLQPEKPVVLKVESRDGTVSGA
Procedure: as §1, §2

[3] = tested on: human liver microsomes (HLM); assay: Enzyme kinetics of JP-1366 metabolism in human liver microsomes; assay type: in vitro ADME
Procedure: as §1, §2

[4] = tested on: human, dog, monkey, mouse, and rat hepatocytes; assay: In vitro metabolic profiling of JP-1366 in hepatocytes; assay type: in vitro ADME; details: 10 µM JP-1366, 60 min; H human, D dog, Mk monkey, M mouse, R rat
Procedure: Cryopreserved human, dog, monkey, mouse, and rat hepatocytes were purified and recovered according to the manufacturer’s protocol. […] The metabolic reaction in each sample well was quenched by adding 120 μL of ice-cold acetonitrile.
MS spectra were obtained in positive-ion mode using electrospray ionization under optimized conditions as follows: capillary temperature, 350 °C; sheath gas flow rate, 40 (arbitrary units); aux gas flow rate, 10 (arbitrary units); and aux gas heater temperature, 350 °C. Full MS scan with data-dependent MS/MS was performed from m/z 100 to m/z 1000.

[5] = target: T3, human cDNA-expressed CYP2C19 (Homo sapiens, UniProt P33261); assay: Enzyme kinetics of JP-1366 metabolism in cDNA-expressed CYP2C19; assay type: in vitro ADME
T3 construct: purchased Corning Life Sciences
T3 sequence (P33261 whole entry): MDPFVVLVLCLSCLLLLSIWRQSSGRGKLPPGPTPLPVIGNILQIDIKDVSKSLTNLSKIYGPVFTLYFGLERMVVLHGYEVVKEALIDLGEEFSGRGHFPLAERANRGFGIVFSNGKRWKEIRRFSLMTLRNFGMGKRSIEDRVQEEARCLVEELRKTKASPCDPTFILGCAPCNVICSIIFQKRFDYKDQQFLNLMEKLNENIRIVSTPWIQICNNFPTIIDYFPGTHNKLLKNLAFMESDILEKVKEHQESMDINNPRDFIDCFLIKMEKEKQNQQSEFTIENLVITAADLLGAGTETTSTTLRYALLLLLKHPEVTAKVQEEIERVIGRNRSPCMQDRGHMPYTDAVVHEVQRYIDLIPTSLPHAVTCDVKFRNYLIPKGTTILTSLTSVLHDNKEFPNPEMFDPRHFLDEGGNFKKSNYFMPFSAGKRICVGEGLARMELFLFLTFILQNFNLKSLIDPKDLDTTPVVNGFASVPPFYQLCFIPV
Procedure: as §1, §2

A3 = A3 (Homo sapiens, UniProt P0DMS8); assay: BioPrint profiling, A3; details: BioPrint profiling (Eurofins CEREP)
A3, sequence (P0DMS8 whole entry): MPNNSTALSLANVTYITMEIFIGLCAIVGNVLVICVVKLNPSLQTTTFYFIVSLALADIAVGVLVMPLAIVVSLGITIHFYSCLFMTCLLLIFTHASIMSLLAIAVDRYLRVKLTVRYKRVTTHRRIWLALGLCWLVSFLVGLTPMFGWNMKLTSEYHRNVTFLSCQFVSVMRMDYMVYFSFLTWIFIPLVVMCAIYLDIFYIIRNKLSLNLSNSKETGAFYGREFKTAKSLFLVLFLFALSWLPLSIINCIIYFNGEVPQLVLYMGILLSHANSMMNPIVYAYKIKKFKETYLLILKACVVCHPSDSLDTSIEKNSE
Source text: (§3) However, the involvement of multiple metabolizing enzymes such as CYP1A2, CYP2C9/19, CYP1A2, and CYP2D6 with a minor contribution in the formation of M1, M6, M19, and M21 and the involvement of UGT1A1 and UGT2B7 in the formation of M15 from M1 and the formation of 23 metabolites might reduce the risk of drug–drug interaction potential mediated by a single metabolizing enzyme and a main metabolite. Additionally, it may reduce the intersubject variability caused by genetic variations in these metabolizing enzymes.

[6] = Metabolic stability of JP-1366 in rat hepatocytes; assay type: in vitro ADME; details: cryopreserved rat hepatocytes
Procedure: (§4) According to the manufacturer’s protocol, cryopreserved human, dog, monkey, mouse, and rat hepatocytes were purified and recovered. […] The metabolic reaction in each sample well was quenched by adding 120 μL of ice-cold acetonitrile.
(§5) Log-transformed relative responses of JP-1366 were plotted against incubation time, thereby obtaining the elimination slope (k) from the linear regression analysis. […] (1) t1 /2(min)=ln2/kelimination slope (2) Clint(mL/min/kg)=ln2/t1/2×mL incubation/hepatocyte (10^6 cells)×B×10^6 cells/g liver×A g liver/kg BW (3) Clhep(mL/min/kg)=Qh×Clint/Qh+Clint (4) HER=Clhep/Qh
(§6) Here, A means the liver weight parameters and has values of 25.7, 32, 30, 87.5, and 40; B means the cell number parameters and has values of 139, 215, 120, 135, and 117; Qh represents hepatic blood flow and has values of 20.7, 30.9, 43.6, 90, and 55.2 mL/min/kg for humans, dogs, monkeys, mice, and rats, respectively. Hepatic extraction ratios (HERs) of ≤0.25, 0.25–0.75, and ≥0.75 were regarded as low, moderate, and high, respectively.

dog hepatocytes = assay: Metabolic stability of JP-1366 in dog hepatocytes; assay type: in vitro ADME; details: dog hepatocytes
Procedure: as §4, §5, §6

[7] = Metabolic stability of JP-1366 in dog hepatocytes; assay type: in vitro ADME; details: cryopreserved dog hepatocytes
Procedure: as §4, §5, §6

mouse hepatocytes = assay: Metabolic stability of JP-1366 in mouse hepatocytes; assay type: in vitro ADME; details: mouse hepatocytes
Procedure: as §4, §5, §6

[8] = as above; assay type: in vitro ADME; details: cryopreserved mouse hepatocytes
Procedure: as §4, §5, §6

human hepatocytes = assay: Metabolic stability of JP-1366 in human hepatocytes; assay type: in vitro ADME; details: human hepatocytes
Procedure: as §4, §5, §6

[9] = as above; assay type: in vitro ADME; details: cryopreserved human hepatocytes
Procedure: as §4, §5, §6

MT1 = MT1 (Homo sapiens, UniProt P48039); assay: BioPrint profiling, MT1; details: BioPrint profiling (Eurofins CEREP)
MT1, sequence (P48039 whole entry): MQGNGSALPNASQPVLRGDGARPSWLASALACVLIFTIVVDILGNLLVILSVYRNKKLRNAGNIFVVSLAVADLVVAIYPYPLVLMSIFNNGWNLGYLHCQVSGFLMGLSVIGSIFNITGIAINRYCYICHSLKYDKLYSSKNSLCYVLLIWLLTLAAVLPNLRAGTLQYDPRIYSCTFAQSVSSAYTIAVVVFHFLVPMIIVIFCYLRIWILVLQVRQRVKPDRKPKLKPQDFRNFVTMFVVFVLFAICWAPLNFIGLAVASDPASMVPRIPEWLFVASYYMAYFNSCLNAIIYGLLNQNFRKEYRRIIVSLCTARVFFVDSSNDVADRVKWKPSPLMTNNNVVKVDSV
Source text: as §3

[10] = cited from earlier work
[11] = formation of the labelled metabolite from JP-1366, CYP3A4
[12] = formation of the labelled metabolite from JP-1366, CYP2C19

CLint ([1]; formation of the labelled metabolite from JP-1366, CYP2C8): 0.031 μL/min/pmol CYP
Contribution (%) ([1]; relative contribution of CYP2C8 to formation of the labelled metabolite): 3.7%
Ki ([1]; substrate inhibition kinetics, formation of the labelled metabolite, CYP2C8): 197 µM
CLint [2, 11]: 0.35 μL/min/pmol CYP
n (Hill coefficient) [2, 11]: 2.9
Contribution (%) ([2]; relative contribution of CYP3A4 to formation of the labelled metabolite): 17.3%
Vmax ([3]; formation of the labelled metabolite from JP-1366, HLM): 826.1 pmol/min/mg protein
Ki ([3]; substrate inhibition kinetics, formation of the labelled metabolite, HLM): 96.5 µM
Hepatocytes (species in which the metabolite was found) [4]: H, D, Mk, M, R
CLint [5, 12]: 0.068 μL/min/pmol CYP
n (Hill coefficient) [5, 12]: 1.6
Contribution (%) ([5]; relative contribution of CYP2C19 to formation of the labelled metabolite): 0.1%
Compound: Cc1cccc(CO)c1CNc1cc(C(=O)N2CCC2)cn2c(C)c(C)nc12 [M1, azetidin-1-yl(8-((2-(hydroxymethyl)-6-methyl-benzyl)amino)-2,3-dimethylimidazo[1,2-a]pyridin-6-yl)methanone]
IC50 (H^+/K^+-ATPase): 66.5 nM

IC50 (A3): 2700 nM
CLint scaled at 1 µM ([6]; rat hepatocytes, scaled with physiological parameters): 138 mL/min/kg
half-life at 1 µM ([6]; rat): 47.1 min
CLhep (dog hepatocytes): 25.6 mL/min/kg
HER (dog hepatocytes): 0.83
CLint scaled at 1 µM ([7]; dog hepatocytes, scaled with physiological parameters): 150 mL/min/kg
half-life at 1 µM ([7]; dog): 63.5 min
CLhep (mouse hepatocytes): 75.3 mL/min/kg
HER (mouse hepatocytes): 0.84
CLint scaled at 1 µM ([8]; mouse hepatocytes, scaled with physiological parameters): 461 mL/min/kg
half-life at 1 µM ([8]; mouse): 59.2 min
CLhep (human hepatocytes): 16.3 mL/min/kg
HER (human hepatocytes): 0.79
CLint scaled at 1 µM ([9]; human hepatocytes, scaled with physiological parameters): 77.5 mL/min/kg
half-life at 1 µM ([9]; human): 63.9 min
IC50 (MT1): 870 nM
Compound: Cc1cccc(C)c1CNc1cc(C(=O)N2CCC2)cn2c(C)c(C)nc12 [JP-1366, 1-azetidinyl(8-(((2,6-dimethylphenyl)methyl)amino)-2,3-dimethylimidazo(1,2-a)pyridin-6-yl)methanone]
safety and tolerability ([10]; SAD up to 60 mg, MAD up to 40 mg, healthy male Korean subjects): safe and well tolerated
dose-normalized AUC among genetic variants of CYP2C19, CYP3A5, CYP2D6, UGT1A1, and UGT2B17 [10]: not significantly different
